{"source": "patent US12509734B2", "about": "“Systems and methods to assess microbiomes and treatments thereof” (priority 2013, dated 2025)", "key": {"[1]": {"test_system": "vaginal microbiota (PB-primer target groups)", "assay": "PB-qPCR of acute BV and post-tinidazole vaginal lavages (Tables 3A, 3B)", "type": "in vivo, human", "conditions": "for Post-Tinidazole PB-qPCR Cells/sample: post-tinidazole vaginal lavage", "procedure": "DNA extraction. Bacteria were lysed from vaginal lavages by adding sodium hydroxide and sodium dodecyl sulfate to final concentrations of 133 mM and 10% respectively, followed by vigorous reciprocal shaking at room temperature for 30 m. This lysate was then extracted with phenol:chloroform:isoamyl alcohol (25:24:1) then chloroform. The DNA was precipitated with an equal volume of 100% isopropanol, washed once with 70% isopropanol, and dissolved in 100 μl TE (10 mM Tris pH 8, 1 mM EDTA). DNA was stored at −20° C. until further use. […] DNA was amplified from extracts of reference bacterial species as single colonies, using QUICKEXTRACT™ Plant DNA 144 Extraction Solution (Epicentre, Madison, WI), modified by heating at 65° C. for 30 m, 95° C. for 1 m.\nPCR primers, blockers, and amplification. Standard PCR was performed on ROBOCYCLER™ Gradient 96 (Stratagene). Real-time PCR was performed using Cepheid SMARTCYCLER™ or LIGHTCYCLER® 480 II (Roche Applied Sciences) thermal cyclers. The reaction utilized individually optimized amounts of each primer, 250 μM dNTPs (Invitrogen), 20 mM Tris pH 8.3, 3 mM MgCl2, 50 mM KCl, and Taq DNA polymerase, 5 units from either GeneChoice or New England Biolabs, 2.5 units GenScript Green Taq, or 1 unit of glycerol-free Taq DNA polymerase from APEX (Genesee Scientific) per 100 μl reaction volume, including either 0.073×SYBR® Green I Nucleic Acid Stain (FMC Bio Products) or 0.25 μl of 15 μM SYTO9 (Invitrogen) for qPCR reactions.\nCalculation of titers and percent compositions. Cp values from reactions in LIGHTCYCLER® 480 II Real-Time PCR System (Roche Applied Science) were converted to molecules by comparison to Cp values of a standard curve from the same run derived from four to eight 10-fold serial dilutions of an amplicon quantified using the QUANT-IT® assay (Invitrogen). Molecules per μl were converted to cells per 5 ml lavage, assuming an average of five ribosomal genes per cell and proportioned to the ratio of the volume of the lavage used in the DNA prep and its final volume.\nIf the titer of the sample was below the limit of detection for the PB assay, nested PCR on a 24-cycle amplicon from a longer broad-spectrum 16S amplicon was performed (Tables 3A-3D). If the nested PCR was negative, the titer of the original sample was assumed to be 0; if the nested PCR was positive, the titer was reported as below the concentration of most dilute but still positive sample in each specific run. Amplicons were sequenced to verify that targeted species were amplified. Mixed amplicons were cloned into pGEM-T™ easy (Promega) and approximately 10 of the resultant clones sequenced. Percentages were calculated by dividing the titer from each PB by the sum of the titers from all the PB primers.\nFor Tables 3A-3D, titers were determined by qPCR using standard curves and converted to approximate cells/sample as described herein. Primers BU4&BU6 were used alone for the 16S-C&S but the extended set (Table 1) was used for qPCR. Species were identified by Sanger sequencing of either uncloned amplicons, in cases where a single species was dominant for the target group, or by sequencing small numbers of E. coli clones derived from the amplicons if mixed. In silico performance was determined using the RDP website; Target hits is the number of database entries of “good” quality >1200 bp within the target grouping; Total hits is the total number of these hits in the RDP database; Specificity=target/total hits; Total target number=number of RDP entries in the target group; Target coverage=target hits/target number. Notes: uc=uncultured; n.d.=none detected; n.a.=not applicable; t=no subuniversal primer; *=detected by nested PCR only, reporting limit of detection; [ ]=identity; ˜=novel species, closest hit listed. […] 1 min and ended with 72° C. 5 min; ***=excludes ˜⅓ of Clostridium XI; **** performance not determined, showing forward primer only. […]"}, "bacterial vaginosis (BV)": {"test_system": "bacterial vaginosis (BV)", "assay": "Clinical assessment of BV patients after therapy (Amsel criteria, Nugent score, recurrence)", "type": "in vivo, human", "excerpt": "Patients. Five African American participants were followed at the Vaginitis Clinic at Wayne State University and had been treated for recurrent episodes symptomatic bouts of BV. Patients were enrolled after protocol explanation and written informed consent was obtained. The study was endorsed by the Human Investigational Review Board of Wayne State University. At the time of enrollment, patients were diagnosed with florid symptomatic acute BV, characterized by the presence of at least 3 of the 4 Amsel criteria (homogeneous vaginal discharge, pH elevated above 4.5, clue cells>20%, positive whiff test) and Nugent scores of at least 8.\nAt this immediate PT visit, patients were given Catch-All Sample Collection Swabs (Epicentre Biotechnologies, Madison, WI) and 15 mL conical tubes for vaginal specimen self-collection. […] Samples from a previously characterized group of recurrent BV patients, sampled before and after treatment, were also evaluated by Lb-qPCR. Reichman et al., Sexually Transmitted Diseases 36: 732-734, 2009."}}, "data": [{"smiles": "CCS(=O)(=O)CCn1c([N+](=O)[O-])cnc1C", "note": "[tinidazole]", "values": [{"measurement": "Composition of post-tinidazole sample", "setting": "[1]; PB-qPCR, FIG. 5B", "value": "dominated by L. iners"}, {"measurement": "Fold higher G. vaginalis in the BV sample compared to post-tinidazole", "setting": "[1]; one patient, vaginal lavages", "value": "approximately 10^4 fold"}, {"measurement": "Fold lower titer of L. iners in the acute BV sample compared to post-tinidazole", "setting": "[1]; one patient, vaginal lavages", "value": "approximately 20 fold"}, {"measurement": "Post-Tinidazole PB-qPCR Cells/sample", "setting": "[1]; target Actinobacteridae", "value": "5.7E+04", "unit": "Cells/sample"}, {"measurement": "Post-Tinidazole PB-qPCR Cells/sample", "setting": "[1]; target Bacteroidaceae/uc Prevotellaceae", "value": "4.7E+06", "unit": "Cells/sample"}, {"measurement": "Post-Tinidazole PB-qPCR Cells/sample", "setting": "[1]; target Beta-Proteobacteria", "value": "2.6E+04", "unit": "Cells/sample"}, {"measurement": "Post-Tinidazole PB-qPCR Cells/sample", "setting": "[1]; target Broad-spectrum (BU4L/BU6R)", "value": "1.4E+10", "unit": "Cells/sample"}, {"measurement": "Post-Tinidazole PB-qPCR Cells/sample", "setting": "[1]; target Clostridiales Incertae Sedis XI", "value": 0, "unit": "Cells/sample"}, {"measurement": "Post-Tinidazole PB-qPCR Cells/sample", "setting": "[1]; target Clostridiales Incertae Sedis XII", "value": "5.5E+03", "unit": "Cells/sample"}, {"measurement": "Post-Tinidazole PB-qPCR Cells/sample", "setting": "[1]; target Coriobacteridae", "value": "4.0E+04", "unit": "Cells/sample"}, {"measurement": "Post-Tinidazole PB-qPCR Cells/sample", "setting": "[1]; target Cross-family Clostridia", "value": "3.9E+03", "unit": "Cells/sample"}, {"measurement": "Post-Tinidazole PB-qPCR Cells/sample", "setting": "[1]; target Enterobacteriales, Pasteurellales, Pseudomonadaceae", "value": "2.9E+03", "unit": "Cells/sample"}, {"measurement": "Post-Tinidazole PB-qPCR Cells/sample", "setting": "[1]; target Fusobacterium", "value": "2.9E+02", "unit": "Cells/sample"}, {"measurement": "Post-Tinidazole PB-qPCR Cells/sample", "setting": "[1]; target Lachnospiracea uc & incertae sedis, Clostridium IVa, Roseburia", "value": "2.8E+05", "unit": "Cells/sample"}, {"measurement": "Post-Tinidazole PB-qPCR Cells/sample", "setting": "[1]; target Lactobacillaceae", "value": "8.4E+09", "unit": "Cells/sample"}, {"measurement": "Post-Tinidazole PB-qPCR Cells/sample", "setting": "[1]; target Megasphaera/Dialister/Veillonella", "value": "1.8E+03", "unit": "Cells/sample"}, {"measurement": "Post-Tinidazole PB-qPCR Cells/sample", "setting": "[1]; target Mobiluncus", "value": 0, "unit": "Cells/sample"}, {"measurement": "Post-Tinidazole PB-qPCR Cells/sample", "setting": "[1]; target Mycoplasmatales", "value": "8.3E+04", "unit": "Cells/sample"}, {"measurement": "Post-Tinidazole PB-qPCR Cells/sample", "setting": "[1]; target Peptostreptococcaceae", "value": 0, "unit": "Cells/sample"}, {"measurement": "Post-Tinidazole PB-qPCR Cells/sample", "setting": "[1]; target Staphylococcus", "value": "1.0E+05", "unit": "Cells/sample"}, {"measurement": "Post-Tinidazole PB-qPCR Cells/sample", "setting": "[1]; target Streptococcus", "value": "8.1E+05", "unit": "Cells/sample"}, {"measurement": "Post-Tinidazole PB-qPCR Cells/sample", "setting": "[1]; target uc Clostridiales (BVAB2&3 subset)", "value": 0, "unit": "Cells/sample"}, {"measurement": "Clinical status after treatment", "setting": "bacterial vaginosis (BV); BV patient (Nugent 10 at acute phase), 500 mg twice a day for 10 days", "value": "full remission"}, {"measurement": "Amine test after therapy", "setting": "bacterial vaginosis (BV); P4, 500 mg bid for 7 days", "value": "negative"}, {"measurement": "Clinical status one week after completing therapy", "setting": "bacterial vaginosis (BV); P4, 500 mg bid for 7 days", "value": "entirely asymptomatic"}, {"measurement": "Vaginal pH after therapy", "setting": "bacterial vaginosis (BV); P4, 500 mg bid for 7 days", "value": 4.2}, {"measurement": "Recurrence of BV", "setting": "bacterial vaginosis (BV); P4, followed for a month", "value": "did not recur"}, {"measurement": "Outcome at return within three weeks by Amsel criteria", "setting": "bacterial vaginosis (BV); five recurrent BV patients, Nugent scores of 0 except Patient 5", "value": "clinical cure"}]}]}
